The target of one experiment is T1, leukotriene D4 (Cavia porcellus, UniProt Q2NNR5).
T1 construct: tracheas were isolated from male Hartley guinea-pigs; from tissue; host or cells: isolated trachea of male Hartley guinea-pigs
T1 sequence (Q2NNR5 1-340): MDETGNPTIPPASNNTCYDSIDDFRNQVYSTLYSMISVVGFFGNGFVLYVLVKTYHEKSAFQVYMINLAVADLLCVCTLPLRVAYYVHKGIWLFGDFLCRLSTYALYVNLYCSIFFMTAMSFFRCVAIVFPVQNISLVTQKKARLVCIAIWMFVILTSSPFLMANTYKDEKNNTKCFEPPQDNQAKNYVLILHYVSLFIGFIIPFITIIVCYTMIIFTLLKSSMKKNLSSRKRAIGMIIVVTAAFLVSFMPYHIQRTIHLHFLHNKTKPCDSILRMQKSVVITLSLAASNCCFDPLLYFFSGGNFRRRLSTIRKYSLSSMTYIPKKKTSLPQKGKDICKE
The experiment can be described thus: Leukotriene D4 antagonistic effect in isolated trachea (Schild method). More on the design: species or system male Hartley guinea-pigs. The settings on record: isolated trachea, 30 min treatment, indomethacin 3×10^-6 M, Krebs 37° C. The procedure:
According to an ordinary method, tracheas were isolated from male Hartley guinea-pigs, and ring specimens of approximately […] length were prepared. These specimens were suspended isotonically in organ baths that contained Krebs solution at 37° C. under a resting tension of 0.5 g. After repeated contractions with acetylcholine (1×10^-6 M; Ovisot for injection, Daiichi Seiyaku), and the first concentration-response curves was obtained by cummulative applications of leukotriene D4 (ULTRA FINE) into the organ baths. After treatments with test compounds at adequate concentrations for 30 min, the second concentration-response curves were obtained in the same manner as first applications. pKB values were calculated using these two concentration-response curves according to the method of Schild [Pharmacological Review, Vol. 9, 242 (1957)]. Indomethacin (3×10^-6 M; Sigma) was added beforehand to the organ bath to eliminate possible affections by thromboxane A2 and prostaglandin produced by stimulus of leukotriene D4 [Japan J. Pharmacol., Vol. 60, 227 (1992)].

In the next experiment the target is T2, thromboxane A2 receptor (Cavia porcellus, UniProt A0A286Y4I8).
T2 construct: platelet-rich plasma; endogenous in cells; host or cells: guinea-pig platelets in platelet-rich plasma
T2 sequence (A0A286Y4I8 1-347): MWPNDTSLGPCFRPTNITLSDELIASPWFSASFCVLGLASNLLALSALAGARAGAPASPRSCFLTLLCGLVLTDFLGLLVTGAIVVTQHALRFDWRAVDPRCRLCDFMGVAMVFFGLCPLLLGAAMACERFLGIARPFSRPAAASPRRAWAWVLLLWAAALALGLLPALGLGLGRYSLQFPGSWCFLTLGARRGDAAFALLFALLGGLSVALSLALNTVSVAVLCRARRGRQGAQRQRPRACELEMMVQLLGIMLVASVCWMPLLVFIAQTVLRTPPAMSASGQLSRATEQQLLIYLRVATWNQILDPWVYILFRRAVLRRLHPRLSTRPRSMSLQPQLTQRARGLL
The experiment can be described thus: Thromboxane A2 antagonistic effect: inhibition of U-46619-induced platelet aggregation in guinea-pig platelet-rich plasma. It is filed as cell-based, guinea-pigs. The settings on record: guinea-pig PRP, U-46619 2 μg/ml, 2 min at 37° C.; read-out: IC50 (50% inhibition against platelet aggregation). The protocol: Blood was collected from the abdominal aorta of guinea-pigs (about 400 g wt.) into 1/10 volume of 3.8% sodium citrate, and then platelet-rich plasma (PRP: 6×10^5 cells/μl) was obtained by centrifugation. A cuvette was filled with PRP 190 μl and set in an aggregometer (Hema Tracer I; Niko Bioscience). Incubation was carried out for 2 min. at 37° C. after the addition of 1 μl of dimethyl sulfoxide solution of test compounds. To the PRP, 10 μl of U-46619 (Cayman), a thromboxane A2 /prostaglandin H2 receptor agonist and potent platelet aggregation inducer, was added at the final concentration of 2 μg/ml, and platelet aggregation was measured by an aggregometer.

From patent publication US5597848A, “Benzenesulfonamide derivatives and use thereof” (Hokuriku Seiyaku Co., Ltd., priority 1992, dated 1997) come the findings set out here.

pIC50: −log10 of the molar value.

A word on the Kb: it is the equilibrium dissociation constant of an antagonist, usually derived from a functional assay. What is called pIC50 is −log10 of the IC50, conventionally taken in molar units.

For the compound `C[C@H]1CC[C@H](C(NS(=O)(=O)c2ccc(Cl)cc2)c2ccc(CCCC(=O)O)cc2)CC1` (relative stereo) [Example 76, trans-4-[4-[(4-Chlorophenylsulfonylamino)(4-methylcyclohexyl)methyl]phenyl]butyric Acid], the Kb on leukotriene D4 is 200 nM.

On leukotriene D4, `CCCCC[C@H]1CC[C@H](C(NS(=O)(=O)c2ccc(Cl)cc2)c2ccc(CCCC(=O)O)cc2)CC1` (relative stereo) [Example 77, trans-4-[4-[(4-Chlorophenylsulfonylamino)(4-pentylcyclohexyl)methyl]phenyl]butyric Acid] showed a Kb of 631 nM. Turning to `CCC(NS(=O)(=O)c1ccc(Cl)cc1)c1ccc(CCCC(=O)O)cc1` (centres unmarked) [Example 64, 4-[4-[1-(4-Chlorophenylsulfonylamino)propyl]phenyl]butyric Acid], the pIC50 at thromboxane A2 receptor is 6.80. Take `CC(C)CC(NS(=O)(=O)c1ccc(Cl)cc1)c1ccc(CCCC(=O)O)cc1` (centres unmarked) [Example 70, 4-[4-[1-(4-Chlorophenylsulfonylamino)-3-methylbutyl]phenyl]butyric Acid]: the pIC50 on thromboxane A2 receptor is 6.49. The same measure, in the same setting: then `CC(C)(C)CC(NS(=O)(=O)c1ccc(Cl)cc1)c1ccc(CCCC(=O)O)cc1` (centres unmarked) [Example 72, 4-[4-[1-(4-Chlorophenylsulfonylamino)-3,3-dimethylbutyl]phenyl]butyric Acid], with 6.49. Turning to `O=C(O)CCCc1ccc(C(NS(=O)(=O)c2ccc(Cl)cc2)C2CCCCCC2)cc1` (centres unmarked) [Example 75, 4-[4-[(4-Chlorophenylsulfonylamino)cycloheptylmethyl]phenyl]butyric Acid], the Kb at leukotriene D4 was 398 nM. Also, the negative-log IC50 (pIC50) at thromboxane A2 receptor was 6.49. The matching figures for `O=C(O)CCCc1ccc(C(CC2CCCC2)NS(=O)(=O)c2ccc(Cl)cc2)cc1` (centres unmarked) [Example 78, 4-[4-[1-(4-Chlorophenylsulfonylamino)-2-cyclopentylethyl]phenyl]butyric Acid]: 1000 nM and 6.49. `O=C(O)CCCc1ccc(C(CCCCC2CCCCC2)NS(=O)(=O)c2ccc(Cl)cc2)cc1` (centres unmarked) [Example 82, 4-[4-[1-(4-Chlorophenylsulfonylamino)-5-cyclohexylpentyl]phenyl]butyric Acid]: the pIC50 at thromboxane A2 receptor was 6.40. In the case of `O=C(O)CCCc1ccc(C(CC23CC4CC(CC(C4)C2)C3)NS(=O)(=O)c2ccc(Cl)cc2)cc1` (centres unmarked) [Example 84, 4-[4-[2-(1-Adamantyl)-1-(4-chlorophenylsulfonylamino)ethyl]phenyl]butyric Acid], at leukotriene D4, the antagonist dissociation constant (Kb) is 200 nM. That is a sub-micromolar value. At leukotriene D4, `O=C(O)CCCc1ccc(C(CC2CC3CCC2C3)NS(=O)(=O)c2ccc(Cl)cc2)cc1` (centres unmarked) [Example 85, 4-[4-[1-(4-Chlorophenylsulfonylamino)-2-(2-norbornyl)ethyl]phenyl]butyric Acid] showed a Kb of 158 nM. Further, the pIC50 on thromboxane A2 receptor is 6.40. With `O=C(O)CCc1ccc(C(Cc2ccccc2)NS(=O)(=O)c2ccc(Cl)cc2)cc1` (centres unmarked) [Example 86, 3-[4-[1-(4-Chlorophenylsulfonylamino)-2-phenylethyl]phenyl]propionic Acid], at thromboxane A2 receptor, the negative-log IC50 (pIC50) is 6.60.

For `O=C(O)CCCc1ccc(C(Cc2ccccc2)NS(=O)(=O)c2ccccc2)cc1` (centres unmarked) [Example 87, 4-[4-[2-phenyl-1-(phenylsulfonylamino)ethyl]phenyl]butyric Acid], at thromboxane A2 receptor, the pIC50 was 6.49. Same read-out and setting: with `O=C(O)CCCc1ccc(C(Cc2ccccc2)NS(=O)(=O)c2ccc(F)cc2)cc1` (centres unmarked) [Example 88, 4-[4-[1-(4-Fluorophenylsulfonylamino)-2-phenylethyl]phenyl]butyric Acid] the figure was 6.49; with `O=C(O)CCCc1ccc(C(Cc2ccccc2)NS(=O)(=O)c2ccc(Br)cc2)cc1` (centres unmarked) [Example 89, 4-[4-[1-(4-Bromophenylsulfonylamino)-2-phenylethyl]phenyl]butyric Acid], 7.49; with `Cc1ccc(S(=O)(=O)NC(Cc2ccccc2)c2ccc(CCCC(=O)O)cc2)cc1` (centres unmarked) [Example 90, 4-[4-[1-(p-Tolylsulfonylamino)-2-phenylethyl]phenyl]butyric Acid], 6.49. On the same count and under the same terms, then `COc1ccc(S(=O)(=O)NC(Cc2ccccc2)c2ccc(CCCC(=O)O)cc2)cc1` (centres unmarked) [Example 91, 4-[4-[1-(4-Methoxyphenylsulfonylamino)-2-phenylethyl]phenyl]butyric Acid], with 6.49; and `O=C(O)CCCCc1ccc(C(Cc2ccccc2)NS(=O)(=O)c2ccc(Cl)cc2)cc1` (centres unmarked) [Example 92, 5-[4-[1-(4-Chlorophenylsulfonylamino)-2-phenylethyl]phenyl]valeric Acid], with 6.49; and `O=C(O)CCCc1ccc(C(Cc2ccccc2F)NS(=O)(=O)c2ccc(Cl)cc2)cc1` (centres unmarked) [Example 93, 4-[4-[1-(4-Chlorophenylsulfonylamino)-2-(2-fluorophenyl)ethyl]phenyl]butyric Acid], with 6.49. Take `O=C(O)CCCc1ccc(C(Cc2cccc(F)c2)NS(=O)(=O)c2ccc(Cl)cc2)cc1` (centres unmarked) [Example 94, 4-[4-[1-(4-Chlorophenylsulfonylamino)-2-(3-fluorophenyl)ethyl]phenyl]butyric Acid]: the pIC50 at thromboxane A2 receptor is 7.20. On to `O=C(O)CCCc1ccc(C(Cc2ccc(F)cc2)NS(=O)(=O)c2ccc(Cl)cc2)cc1` (centres unmarked) [Example 95, 4-[4-[1-(4-Chlorophenylsulfonylamino)-2-(4-fluorophenyl)ethyl]phenyl]butyric Acid], for which, at leukotriene D4, the antagonist dissociation constant (Kb) was 501 nM. For the same compound, the pIC50 on thromboxane A2 receptor was 6.80. For `CCCCCCCC(NS(=O)(=O)c1ccc(Cl)cc1)c1ccc(CCCC(=O)O)cc1` (centres unmarked) [Example 100, 4-[4-[1-(4-Chlorophenylsulfonylamino)octyl]phenyl]butyric Acid], the pIC50 at thromboxane A2 receptor is 6.10. Turning to `O=C(O)CCCCc1ccc(C(CC2CCCCC2)NS(=O)(=O)c2ccc(Cl)cc2)cc1` (centres unmarked) [Example 113, 5-[4-[1-(4-Chlorophenylsulfonylamino)-2-cyclohexylethyl]phenyl]valeric Acid], the Kb at leukotriene D4 was 39.8 nM. For the same compound, the pIC50 at thromboxane A2 receptor was 6.40.

As for `O=C(O)CCCc1ccc(C(CCCc2ccccc2)NS(=O)(=O)c2ccc(Cl)cc2)cc1` (centres unmarked) [Example 114, 4-[4-[1-(4-Chlorophenylsulfonylamino)-4-phenylbutyl]phenyl]butyric Acid], the negative logarithm of the IC50 (pIC50) on thromboxane A2 receptor was 6.49. Turning to `O=C(O)CCCc1ccc(C(CCCCc2ccccc2)NS(=O)(=O)c2ccc(Cl)cc2)cc1` (centres unmarked) [Example 115, 4-[4-[1-(4-Chlorophenylsulfonylamino)-5-phenylpentyl]phenyl]-butyric Acid], on thromboxane A2 receptor, the pIC50 is 6.49. Regarding `O=C(O)CCCc1ccc(C(CCCCCc2ccccc2)NS(=O)(=O)c2ccc(Cl)cc2)cc1` (centres unmarked) [Example 116, 4-[4-[1-(4-Chlorophenylsulfonylamino)-6-phenylhexyl]phenyl]butyric Acid], on leukotriene D4, the Kb was 200 nM. Further, the negative logarithm of the IC50 (pIC50) on thromboxane A2 receptor was 6.30. `CCCCc1ccc(CCC(NS(=O)(=O)c2ccc(Cl)cc2)c2ccc(CCCC(=O)O)cc2)cc1` (centres unmarked) [Example 117, 4-[4-[3-(4-Butylphenyl)-1-(4-chlorophenylsulfonylamino)propyl]phenyl]butyric Acid]: the Kb on leukotriene D4 is 251 nM.
